# Experimental data taken from BindingDB's records for patent US10961200 (Department Of Health And Human Services, 2021).
# Biological target: L-lactate dehydrogenase A chain (Homo sapiens, UniProt P00338)
# Assay: Biochemical Assay
# Description: Test compounds were placed in a Greiner Bio-One (Monroe, N.C.) 1536-well black solid bottom assay plate. 200 millimolar (mM) Tris HCl, pH 7.4, 100 micromolar (M) EDTA and 0.01% TWEEN-20 , final concentration, was used as the assay buffer. The LDHA reagent was 2 nanomolar (nM) Human LDHA (Meridian Life Science, Inc., Memphis, Tenn.), final concentration, in assay buffer.
row,IC50 [nM],Compound
1,< 100,"NS(=O)(=O)c1ccc(Cc2c(-c3cccc(Nc4ccccc4)c3)nn(-c3nc(C(=O)O)cs3)c2CC2CC2)cc1 [US10961200, Compound 485]"
2,< 100,"NS(=O)(=O)c1ccc(Cc2cn(-c3nc(C(=O)O)cs3)nc2-c2ccc(F)c(-c3ccccc3)c2)cc1 [US10961200, Compound 515]"
3,< 100,"CC(C)Oc1cccc(-c2nn(-c3nc(C(=O)O)cs3)c(CC3CC3)c2Cc2ccc(S(N)(=O)=O)cc2)c1 [US10961200, Compound 504]"
